In patent US10774385B2, “Method of determining risk of 5-fluorouracil toxicity” (Oxford University Innovation Limited, priority 2014, dated 2020):

How the values were obtained:
[1] = Spanish Capecitabine Pharmacogenetic (SCP) Study: diarrhea and HFS by CTCAE v3.0; assay type: in vivo, human; settings: capecitabine monotherapy
Protocol: Two additional data sets were used for validation of toxicity associations. The Spanish Capecitabine Pharmacogenetic (SCP) Study consisted of 233 colorectal and breast cancer patients prospectively recruited through several oncology units in Spain and treated with one of two capecitabine monotherapy regimens (standard: 1250 mg/m^2 twice daily d1-14 every 3 weeks; continuous: 800 mg/m^2 orally every 12 hours daily). HFS and diarrhea data Table 4 were collected according to CTCAEv3.0.

[2] = QUASAR2 trial: FU-related adverse events of capecitabine +/- bevacizumab graded by NCI CTCAE v3.0; assay type: in vivo, human
Protocol: The QUASAR2 study (http://www.octo-oxford.org.uk/alltrials/infollowup/q2.html; http://www.controlled-trials.com/ISRCTN45133151/) is a phase III randomised controlled trial of adjuvant capecitabine (Xeloda) (1250 mg/m2 twice daily d1-14 every 3 weeks, total of 8 cycles) +/−bevacizumab (7.5 mg/kg every three weeks) following resection of stage II/III CRC. Patients were entered into the study between July 2005 and December 2011 at 123 UK and 81 non-UK sites. Of 1119 patients with blood collected as of July 2010, 1046 were selected for study based on availability of clinical data and informed consent.
Adverse events were graded following each treatment cycle using the NCI Common Toxicity Criteria for Adverse Events (CTCAE) version 3.0. Common FU-related toxicities—diarrhea, nausea and vomiting, mucositis/stomatitis, neutropaenia, thrombocytopaenia, and HFS—were analysed individually and also in combination as “global” toxicity. Adverse events were categorised as low (CTCAE grade 0/1/2) and high (CTCAE grade 3/4/5 at any treatment cycle). Hypertension and proteinuria were clearly related to bevacizumab (˜10-fold higher incidence) and were not included in the analysis.
The QUASAR2 study was used as described in Example 1(a)(i). Of 1,119 patients with blood collected as of July 2010, 1,046 were selected for genetic study based on completeness of clinical data and informed consent.
Toxicity phenotype data were collected as part of QUASAR2 according the NCI Common Toxicity Criteria for Adverse Events (CTCAE) version 3.0. Maximum toxicity (0-4) at any treatment cycle was derived for each of the following individual FU-related toxicities: diarrhea, nausea and vomiting, mucositis/stomatitis, neutropaenia, thrombocytopaenia and HFS. A global measure of toxicity was derived, defined as the maximum individual toxicity score measured for each patient. Global and individual toxicities were analysed using two approaches: (i) a binary classification into low toxicity (grade 0-2) versus high (dose-limiting) toxicity (grade 3-4); and (ii) a quantitative measure of toxicity. In the latter, if <100 patients experienced a particular grade of toxicity, these patients were combined into a single bin with an adjacent grade. Specifically, grades 01v2v34 for global, diarrhea and HFS and 0v1234 for the other, rarer toxicity phenotypes were analysed.

[3] = cited from earlier work
[4] = patients selected for high and low toxicity
[5] = human, in vivo, 8 cycles of 3 weeks

Question: For `CCCCCOC(=O)Nc1nc(=O)n(C2OC(C)C(O)C2O)cc1F` (stereo not drawn) [capecitabine, pentyl [1-(3,4-dihydroxy-5-methyltetrahydrofuran-2-yl)-5-fluoro-2-oxo-1H-pyrimidin-4-yl]carbamate], which “Patients, Diarrhoea, highest CTCAE grade reported during treatment: 0” value ([1]; 233 colorectal and breast cancer patients, selected for high and low toxicity) is on record?
Answer: 143

Question: And the “Patients, Diarrhoea, highest CTCAE grade reported during treatment: 1” value [1, 4]?
Answer: 23

Question: What about the “Patients, Diarrhoea, highest CTCAE grade reported during treatment: 2” value [1, 4] of the same compound?
Answer: 17

Question: What about the “Patients, Diarrhoea, highest CTCAE grade reported during treatment: 3” value [1, 4] of the same compound?
Answer: 32

Question: What about the “Patients, Diarrhoea, highest CTCAE grade reported during treatment: 4” value [1, 4] of the same compound?
Answer: 4

Question: And the “Patients, Handfoot, highest CTCAE grade reported during treatment: 0” value [1, 4]?
Answer: 85

Question: And the “Patients, Handfoot, highest CTCAE grade reported during treatment: 1” value [1, 4]?
Answer: 28

Question: And the “Patients, Handfoot, highest CTCAE grade reported during treatment: 2” value [1, 4]?
Answer: 30

Question: And the “Patients, Handfoot, highest CTCAE grade reported during treatment: 3” value [1, 4]?
Answer: 86

Question: And the “Patients, Handfoot, highest CTCAE grade reported during treatment: 4” value [1, 4]?
Answer: 2

Question: And the “Toxicity-induced deaths in QUASAR2” value ([2]; QUASAR2, patients with grade 4 myelotoxicity)?
Answer: two

Question: What about the “Patients, Global adverse event, CTCAE grade 0” value [2, 5] of the same compound?
Answer: 75

Question: And the “Patients, Global adverse event, CTCAE grade 1” value [2, 5]?
Answer: 241

Question: What about the “Patients, Global adverse event, CTCAE grade 2” value [2, 5] of the same compound?
Answer: 375

Question: And the “Patients, Global adverse event, CTCAE grade 3” value [2, 5]?
Answer: 334

Question: What about the “Patients, Neutropaenia, CTCAE grade 0” value [2, 5] of the same compound?
Answer: 921

Question: What about the “Patients, Neutropaenia, CTCAE grade 1” value [2, 5] of the same compound?
Answer: 71

Question: What about the “Patients, Neutropaenia, CTCAE grade 2” value [2, 5] of the same compound?
Answer: 28

Question: And the “Patients, Neutropaenia, CTCAE grade 3” value [2, 5]?
Answer: 17

Question: And the “Patients, Thrombocytopaenia, CTCAE grade 0” value [2, 5]?
Answer: 961

Question: What about the “Patients, Thrombocytopaenia, CTCAE grade 1” value [2, 5] of the same compound?
Answer: 67

Question: And the “Patients, Thrombocytopaenia, CTCAE grade 2” value [2, 5]?
Answer: 9

Question: What about the “Patients, Thrombocytopaenia, CTCAE grade 3” value [2, 5] of the same compound?
Answer: 0

Question: And the “Patients, Thrombocytopaenia, CTCAE grade 4” value [2, 5]?
Answer: 4

Question: What about the “Patients, Vomiting, CTCAE grade 3” value [2, 5] of the same compound?
Answer: 12

Question: What about the “Patients, Vomiting, CTCAE grade 4” value [2, 5] of the same compound?
Answer: 3

Question: And the “Patients, Diarrhoea, CTCAE grade 0” value ([2]; human, in vivo, 24 weeks)?
Answer: 370

Question: What about the “Patients, Diarrhoea, CTCAE grade 1” value ([2]; human, in vivo, 24 weeks) of the same compound?
Answer: 388

Question: What about the “Patients, Diarrhoea, CTCAE grade 2” value ([2]; human, in vivo, 24 weeks) of the same compound?
Answer: 175

Question: What about the “Patients, Diarrhoea, CTCAE grade 3” value ([2]; human, in vivo, 24 weeks) of the same compound?
Answer: 99

Question: What about the “Patients, Diarrhoea, CTCAE grade 4” value ([2]; human, in vivo, 24 weeks) of the same compound?
Answer: 10

Question: What about the “Patients, Global adverse event, CTCAE grade 4” value ([2]; human, in vivo, 24 weeks) of the same compound?
Answer: 19

Question: And the “Patients, Handfoot, CTCAE grade 0” value ([2]; human, in vivo, 24 weeks)?
Answer: 176

Question: What about the “Patients, Handfoot, CTCAE grade 1” value ([2]; human, in vivo, 24 weeks) of the same compound?
Answer: 287

Question: What about the “Patients, Handfoot, CTCAE grade 2” value ([2]; human, in vivo, 24 weeks) of the same compound?
Answer: 331

Question: What about the “Patients, Handfoot, CTCAE grade 3” value ([2]; human, in vivo, 24 weeks) of the same compound?
Answer: 246

Question: What about the “Patients, Handfoot, CTCAE grade 4” value ([2]; human, in vivo, 24 weeks) of the same compound?
Answer: 1

Question: And the “Patients, Mucositis, CTCAE grade 0” value ([2]; human, in vivo, 24 weeks)?
Answer: 734

Question: What about the “Patients, Mucositis, CTCAE grade 1” value ([2]; human, in vivo, 24 weeks) of the same compound?
Answer: 248

Question: What about the “Patients, Mucositis, CTCAE grade 2” value ([2]; human, in vivo, 24 weeks) of the same compound?
Answer: 49

Question: And the “Patients, Mucositis, CTCAE grade 3” value ([2]; human, in vivo, 24 weeks)?
Answer: 11

Question: And the “Patients, Mucositis, CTCAE grade 4” value ([2]; human, in vivo, 24 weeks)?
Answer: 0

Question: And the “Patients, Stomatitis, CTCAE grade 0” value ([2]; human, in vivo, 24 weeks)?
Answer: 718

Question: And the “Patients, Stomatitis, CTCAE grade 1” value ([2]; human, in vivo, 24 weeks)?
Answer: 244

Question: What about the “Patients, Stomatitis, CTCAE grade 2” value ([2]; human, in vivo, 24 weeks) of the same compound?
Answer: 67

Question: What about the “Patients, Stomatitis, CTCAE grade 3” value ([2]; human, in vivo, 24 weeks) of the same compound?
Answer: 11

Question: What about the “Patients, Stomatitis, CTCAE grade 4” value ([2]; human, in vivo, 24 weeks) of the same compound?
Answer: 1

Question: What about the “Patients, Vomiting, CTCAE grade 0” value ([2]; human, in vivo, 24 weeks) of the same compound?
Answer: 817

Question: And the “Patients, Vomiting, CTCAE grade 1” value ([2]; human, in vivo, 24 weeks)?
Answer: 134

Question: And the “Patients, Vomiting, CTCAE grade 2” value ([2]; human, in vivo, 24 weeks)?
Answer: 74

Question: What about the “Share of capecitabine patients suffering dose-limiting levels of drug-induced adverse events” value ([3]; background statement) of the same compound?
Answer: approximately one third

Question: What about the “Mortality from rapid-onset toxicity relative to infusional and bolus 5-FU regimens (0.5% to 2%)” value ([3]; capecitabine schedules, literature) of the same compound?
Answer: about half that number

Question: With `O=c1[nH]cc(F)c(=O)[nH]1` [FU, 5-fluorouracil] as the compound, how does the “Patients suffering substantial toxicities (Grade 3 or above, CTCAE v3.0)” value ([3]; FU chemotherapy, background statement) read?
Answer: 10-30%

Question: And the “Mortality (Grade 5, CTCAE v3.0) associated with FU use” value ([3]; overall, literature)?
Answer: 0.5-1.0%
